Experimental findings from PMC5054302 (Molecular and biochemical parasitology, 2011) are described below.

pIC50: −log10 of the molar value. Read-outs that look alike come from different tables or passages of the source.

For one experiment, the system named is HepG2 cells. Kind of experiment: cells. The class given is cell-based, human. The following applies: read-out: Hepatocyte counterscreen. (In general: A counterscreen serves to expose hits that act by an unwanted route or on another target.)
The subject of the next experiment is P. berghei liver stages. Kind of experiment: microbe, parasite or virus in culture. The experiment is classed as cell-based, Plasmodium berghei. The note with it: for Selectivity index: IC50 against hepatocytes divided by IC50 for P. berghei liver stage development.
For experiment [1], the target named is cytochrome bc1 complex, Y279S yeast cytochrome b mutant (Saccharomyces cerevisiae, UniProt P00163+P08067, Y279S). The experiment is classed as biochemical.
Experiment [2] relates to cytochrome bc1 complex, L275F yeast cytochrome b mutant. The class given is biochemical, Saccharomyces cerevisiae. The note with it: IC50 against L275F mutant enzyme divided by IC50 of wild-type enzyme.
Experiment [3] has as its system cytochrome bc1 complex, M139L yeast cytochrome b mutant. The class given is biochemical, Saccharomyces cerevisiae. The note with it: IC50 against M139L mutant enzyme divided by IC50 of wild-type enzyme.
Experiment [4] relates to P. falciparum TM90C2B (C2B isolates, Y268S cytochrome b). As to the kind of experiment: Radio-labeled hypoxanthine growth assay, atovaquone-resistant C2B isolates. The experiment is classed as cell-based, Plasmodium falciparum.

For the molecule `CCCCCCC(C)CC1=C(O)C(=O)c2ccccc2C1=O` (stereo not shown) [S-10576, reference compound], the pIC50 with HepG2 cells (MTT, HepG2 cells alone, 48 h) is less than 4.18.
In the case of `CCCCCCC(C)CC1=C(O)C(=O)c2c(C)cccc2C1=O` (stereo not shown) [NQ2, 2-OH-3-(2-methyl-octyl)-8-methyl-naphthoquinone], in the experiment with P. berghei liver stages, the Selectivity index is recorded as 10.1. Further, the pIC50 in the experiment with HepG2 cells (MTT, HepG2 cells alone, 48 h) is 5.60. The Relative efficacy in experiment [1] (IC50 against Y279S mutant enzyme divided by IC50 of wild-type enzyme) is listed as 0.37. Further, in experiment [1] (at 500 nM, biphasic titration), the “Extent of inhibition of Y279S enzyme activity” value is listed as “did not reach complete inhibition”.
As for `Cc1cccc2c1C(=O)C(O)=C(CC(C)CCCCCC(F)(F)F)C2=O` (stereo not shown) [NQ3, 2-OH-3-(2-methyl-trifluorooctyl)-8-methyl-naphthoquinone], in the experiment with HepG2 cells (MTT, HepG2 cells alone, 48 h), the pIC50 is less than 4.27.
Consider `CC(CCCCCC(F)(F)F)CC1=C(O)C(=O)c2ccccc2C1=O` (stereo not shown) [NQ1, 2-OH-3-(2-methyl-trifluorooctyl)-naphthoquinone], for which the Selectivity index in the experiment on P. berghei liver stages amounted to 399. In addition, in the experiment on HepG2 cells (MTT, HepG2 cells alone, 48 h), the pIC50 is 5.17. The Relative efficacy in experiment [2] and in experiment [3] was less than 1.0 in each case.
For the molecule `O=C1C(O)=C([C@H]2CC[C@H](c3ccc(Cl)cc3)CC2)C(=O)c2ccccc21` [Atovaquone, reference compound], the pIC50 in experiment [4] was 5.15 to 5.18; in the experiment with P. berghei liver stages (Plasmodium berghei, HepG2, 48 h, read-out: IC50 against P. berghei), 7.71; with HepG2 cells (Homo sapiens, HepG2, 48 h) it was 4.42.
